Results as given in patent US9878984B2, “Anti-cancer compounds” (NORTHWESTERN UNIVERSITY, priority 2008, dated 2018).

Legend:
[1] = tested on: HeLa, PC-3M, and MDA-MB-231; assay: MTS growth inhibition assay, human cancer cell lines; type: cell-based; conditions: 72 hr, MTS proliferation assay
Procedure: Cell Culture: HeLa (cervical carcinoma), WI-38 (normal human […] fibroblasts), and MDA-MB-231 (breast carcinoma), cells were cultured in DMEM (Invitrogen—Carlsbad, Calif.) and PC-3M (metastatic prostate carcinoma) cells were cultured in RPMI-1640. Peripheral blood mononuclear cells (PBMCs) were voluntarily collected from a healthy laboratory worker by standard sterile phlebotomy techniques and isolated using Vacutainer CPT collection tubes (BD Biosciences—Bedford, Mass.). PBMCs were isolated freshly for each experiment. All DMEM and RPMI-1640 media was supplemented with 10% FBS (Atlanta Biologicals—Lawrenceville, Ga.) and 100 U/mL penicillin and streptomycin (Invitrogen). […]
Growth Inhibition Assays: HeLa, MDA-MB-231, PC-3M, WI-38, and HUVEC cells were plated at 5,000 cells per well in 96 well plates and allowed to attach for 20 hr (8 hr for HeLa). […] Cell proliferation was measured at t=0 (time at start of treatment) and t=72 hr using MTS AQueous non-radioactive proliferation assay (Promega—Madison, Wis.). […] The absorbance at 490 nm in each well was read with a Spectramax 250 plate reader (Molecular Devices—Sunnyvale, Calif.). […] Data were fit to one site dose response curves in order to obtain specific growth inhibitory concentrations and the relative standard errors of the mean for these concentrations were calculated by the XLfit4 software. […]

Chk2 = assay: DNA damage response assay (pThr68-Chk2 / total Chk2 western blot); type: cell-based, human; conditions: HeLa cells, [GI99%], 20 hr, normalized to mitoxantrone
Procedure: DNA Damage Response Assay: 250,000 HeLa cells were plated in 35 mm culture dishes and allowed to attach for 8 hr and were then treated with the [GI99%] of each compound for 20 hr (total media volume was […] with 1% DMSO). After treatment cells were lysed in 150 μL detergent buffer containing 1:100 v/v protease inhibitor cocktail (Sigma—St. Louis, Mo.). Lysates were run on denaturing 12% acrylamide gels and transferred to nitrocellulose membranes. The membranes were blocked in blotto, incubated in anti-pThr68-Chk2 antibody (Cell Signaling—Danvers, Mass.) at 1:500 v/v dilution in blotto overnight 4° C., washed, incubated in HRP conjugated anti-rabbit secondary antibody (Jackson) at 1:5,000 v/v dilution in blotto for 1 hr, and then developed. The membranes were then stripped with a reducing buffer, blocked in blotto, incubated in anti-Chk2 antibody (Biolegend—San Diego, Calif.) at 1:500 v/v dilution in blotto overnight at 4° C., washed, incubated in HRP conjugated anti-mouse secondary antibody (Jackson) at 1:5,000 v/v dilution in blotto for 1 hr, and then developed. Membranes were developed with PicoWest Developing Solution (Pierce) and exposed to film. The intensities of bands were quantified as described in the previous section. The data are expressed as the average ratio of pThr68-Chk2 to total Chk2 as normalized to the mitoxantrone control in each of three independent experiments.
Topoisomerase inhibition by most mechanisms should cause activation of DNA damage response pathways because of the production of single and double strand DNA breaks, as is the case with amonafide. […] Therefore, measuring the DNA damage response at a fixed cytotoxic dose ([GI99%]) will determine the extent that DNA damage contributes to the cytotoxicity of these compounds. […] Activation of Chk2 was determined by measuring the ratio of pThr68-Chk2 to total Chk2 in HeLa cells treated with the [GI99%].

Compound | growth inhibition potency [1] | DNA damage response (ratio of pThr68-Chk2 to total Chk2) (Chk2)
CN(C)CCN1C(=O)c2cccc3c(N)ccc(c23)C1=O [A1, 6-amino-2-[2-(dimethylamino)ethyl]-1H-benz[de]isoquinoline-1,3(2H)-dione] | near identical to amonafide | 
CN(C)CCN1C(=O)c2cccc3cc(N)cc(c23)C1=O [amonafide, reference compound] |  | evoked the strongest DNA damage response
